From the NIST ThermoML archive (doi:10.1016/j.jct.2006.03.010)
± gives the expanded uncertainty stated by the source.

Columns and labels:
[1] = 101 kPa, Liquid; for speed of sound: Linear variable-path acoustic interferometer
[2] = xn = mol fraction of the nth substance listed; conditions: 101 kPa, Liquid, x2 = 0; for speed of sound: Linear variable-path acoustic interferometer

| Structure (SMILES) | mass density ([1]; 298.15 K) [kg/m3] | viscosity ([1]; 298.15 K) [mPa·s] | speed of sound ([1]; 298.15 K) [m/s] | mass density ([1]; 308.15 K) [kg/m3] | viscosity ([1]; 308.15 K) [mPa·s] | speed of sound ([1]; 308.15 K) [m/s] | speed of sound ([2]; 298.15 K) [m/s] | mass density ([2]; 298.15 K) [kg/m3] | viscosity ([2]; 298.15 K) [mPa·s] | speed of sound ([2]; 308.15 K) [m/s] | mass density ([2]; 308.15 K) [kg/m3] | viscosity ([2]; 308.15 K) [mPa·s] |
| --- | --- | --- | --- | --- | --- | --- | --- | --- | --- | --- | --- | --- |
| CCCCO [butan-1-ol] | 806.33 ± 0.5 | 2.585 ± 0.034 | 1235 ± 3 | 798.38 ± 0.54 | 2.012 ± 0.028 | 1210 ± 3 |  |  |  |  |  |  |
| CCCCO [butan-1-ol] + ClC(Cl)Cl |  |  |  |  |  |  | 1235 ± 3 | 806.33 ± 0.5 | 2.585 ± 0.034 | 1210 ± 3 | 798.38 ± 0.54 | 2.012 ± 0.028 |
| CCO [ethanol] | 784.32 ± 0.39 | 1.084 ± 0.014 | 1144 ± 3 | 775.51 ± 0.43 | 0.902 ± 0.013 | 1111 ± 3 |  |  |  |  |  |  |
| CCO [ethanol] + ClC(Cl)Cl |  |  |  |  |  |  | 1144 ± 3 | 784.32 ± 0.39 | 1.084 ± 0.014 | 1111 ± 3 | 775.51 ± 0.43 | 0.902 ± 0.013 |
| CO [methanol] | 786.3 ± 0.39 | 0.551 ± 0.009 | 1109 ± 3 | 776.6 ± 0.43 | 0.493 ± 0.009 | 1076 ± 3 |  |  |  |  |  |  |
| CO [methanol] + ClC(Cl)Cl |  |  |  |  |  |  | 1109 ± 3 | 786.3 ± 0.39 | 0.551 ± 0.009 | 1076 ± 3 | 776.6 ± 0.43 | 0.493 ± 0.009 |

Results, then the compound that gave them:

| mass density ([1]; 298.15 K) [kg/m3] | viscosity ([1]; 298.15 K) [mPa·s] | speed of sound ([1]; 298.15 K) [m/s] | mass density ([1]; 308.15 K) [kg/m3] | viscosity ([1]; 308.15 K) [mPa·s] | speed of sound ([1]; 308.15 K) [m/s] | speed of sound ([2]; 298.15 K) [m/s] | mass density ([2]; 298.15 K) [kg/m3] | viscosity ([2]; 298.15 K) [mPa·s] | speed of sound ([2]; 308.15 K) [m/s] | mass density ([2]; 308.15 K) [kg/m3] | viscosity ([2]; 308.15 K) [mPa·s] | Structure (SMILES) |
| --- | --- | --- | --- | --- | --- | --- | --- | --- | --- | --- | --- | --- |
| 800.82 ± 0.4 | 1.95 ± 0.024 | 1212 ± 3 | 792.51 ± 0.44 | 1.533 ± 0.02 | 1177 ± 3 |  |  |  |  |  |  | CCCO [propan-1-ol] |
|  |  |  |  |  |  | 1212 ± 3 | 800.82 ± 0.4 | 1.95 ± 0.024 | 1177 ± 3 | 792.51 ± 0.44 | 1.533 ± 0.02 | CCCO [propan-1-ol] + ClC(Cl)Cl |
| 1478.82 ± 1.2 | 0.556 ± 0.01 | 985 ± 3 | 1459.45 ± 1.2 | 0.513 ± 0.009 | 950 ± 2 |  |  |  |  |  |  | ClC(Cl)Cl [trichloromethane] |
